# Reference: PubChem BioAssay (NCI)
#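 1) Cells in 96-well plates. 2) Compound, 48 h, 5 concentrations. 3) Linear interpolation between surrounding doses. 4) Unreached endpoint = highest concentration. Here, GI50 denotes the concentration required for 50% inhibition of growth. TGI: concentration producing complete growth inhibition.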
# Experiments:
# Assay in all cases: DTP human tumour cell line panel, 48 h
# NCI-H226 lung = system: NCI-H226 lung
# SK-MEL-5 melanoma = system: SK-MEL-5 melanoma
# MCF7 breast = system: MCF7 breast
# A549 NSCLC = system: A549 NSCLC
# LOX IMVI melanoma = system: LOX IMVI melanoma
# SF-295 CNS = system: SF-295 CNS
# EKVX NSCLC = system: EKVX NSCLC
# M14 melanoma = system: M14 melanoma
# OVCAR-5 ovarian = system: OVCAR-5 ovarian
# DU-145 prostate = system: DU-145 prostate
# NCI-H23 lung = system: NCI-H23 lung
# OVCAR-3 ovarian = system: OVCAR-3 ovarian
# HL-60(TB) leukemia = system: HL-60(TB) leukemia
# MDA-MB-435 = system: MDA-MB-435
# HS 578T breast = system: HS 578T breast
# PC-3 prostate = system: PC-3 prostate
# HT29 colon = system: HT29 colon
# ACHN renal = system: ACHN renal
# CCRF-CEM leukemia = system: CCRF-CEM leukemia
# SN12C renal = system: SN12C renal
# NCI-H522 lung = system: NCI-H522 lung
# K-562 leukemia = system: K-562 leukemia
# HCT-15 colon = system: HCT-15 colon
# SNB-75 CNS = system: SNB-75 CNS
# COLO 205 colon = system: COLO 205 colon
# SK-OV-3 ovarian = system: SK-OV-3 ovarian
# UO-31 renal = system: UO-31 renal
# NCI-H460 lung = system: NCI-H460 lung
# OVCAR-8 ovarian = system: OVCAR-8 ovarian
# SF-268 CNS = system: SF-268 CNS
# OVCAR-4 ovarian = system: OVCAR-4 ovarian
# T-47D breast = system: T-47D breast
# RXF 393 renal = system: RXF 393 renal
# UACC-62 melanoma = system: UACC-62 melanoma
# IGROV1 ovarian = system: IGROV1 ovarian
# A498 renal = system: A498 renal
# MALME-3M melanoma = system: MALME-3M melanoma
# SW-620 colon = system: SW-620 colon
# SK-MEL-28 melanoma = system: SK-MEL-28 melanoma
# MOLT-4 leukemia = system: MOLT-4 leukemia
# RPMI-8226 leukemia = system: RPMI-8226 leukemia
# UACC-257 melanoma = system: UACC-257 melanoma
# HCT-116 colon = system: HCT-116 colon
# SNB-19 CNS = system: SNB-19 CNS
# TK-10 renal = system: TK-10 renal
# HOP-62 NSCLC = system: HOP-62 NSCLC
# HCC-2998 colon = system: HCC-2998 colon
# CAKI-1 renal = system: CAKI-1 renal
# MDA-MB-468 breast = system: MDA-MB-468 breast
# 786-0 renal = system: 786-0 renal
# HOP-92 NSCLC = system: HOP-92 NSCLC
# BT-549 breast = system: BT-549 breast
# MDA-MB-231 breast = system: MDA-MB-231 breast
# SR leukemia = system: SR leukemia
# KM12 colon = system: KM12 colon
# SF-539 CNS = system: SF-539 CNS
# U251 CNS = system: U251 CNS
smiles,measurement,setting,value
CCN(CC)c1ccnc(CNCCSC(c2ccccc2)(c2ccccc2)c2ccc(OC)cc2)c1,GI50,NCI-H226 lung,3.1 µM
same,TGI,NCI-H226 lung,13.6 µM
same,GI50,SK-MEL-5 melanoma,1.68 µM
same,TGI,SK-MEL-5 melanoma,3.06 µM
same,GI50,MCF7 breast,1.3 µM
same,TGI,MCF7 breast,5.96 µM
same,GI50,A549 NSCLC,3.74 µM
same,TGI,A549 NSCLC,17.1 µM
same,GI50,LOX IMVI melanoma,1.9 µM
same,TGI,LOX IMVI melanoma,3.86 µM
same,GI50,SF-295 CNS,2.2 µM
same,TGI,SF-295 CNS,5.86 µM
same,GI50,EKVX NSCLC,3.61 µM
same,TGI,EKVX NSCLC,14.9 µM
same,GI50,M14 melanoma,1.85 µM
same,TGI,M14 melanoma,4.86 µM
same,GI50,OVCAR-5 ovarian,2.93 µM
same,TGI,OVCAR-5 ovarian,10.6 µM
same,GI50,DU-145 prostate,3.78 µM
same,TGI,DU-145 prostate,13.6 µM
same,GI50,NCI-H23 lung,3.04 µM
same,TGI,NCI-H23 lung,10.2 µM
same,GI50,OVCAR-3 ovarian,3.18 µM
same,TGI,OVCAR-3 ovarian,11 µM
same,GI50,HL-60(TB) leukemia,1.65 µM
same,TGI,HL-60(TB) leukemia,4.24 µM
same,GI50,MDA-MB-435,1.44 µM
same,TGI,MDA-MB-435,5.12 µM
same,GI50,HS 578T breast,2.26 µM
same,TGI,HS 578T breast,6.8 µM
same,GI50,PC-3 prostate,3.19 µM
same,TGI,PC-3 prostate,13.3 µM
same,GI50,HT29 colon,1.98 µM
same,TGI,HT29 colon,4.45 µM
same,GI50,ACHN renal,4.52 µM
same,TGI,ACHN renal,17.2 µM
same,GI50,CCRF-CEM leukemia,3.13 µM
same,TGI,CCRF-CEM leukemia,10.8 µM
same,GI50,SN12C renal,3.43 µM
same,TGI,SN12C renal,13.6 µM
same,GI50,NCI-H522 lung,2.44 µM
same,TGI,NCI-H522 lung,7.29 µM
same,GI50,K-562 leukemia,2.68 µM
same,TGI,K-562 leukemia,8.97 µM
same,GI50,HCT-15 colon,2.87 µM
same,TGI,HCT-15 colon,10.8 µM
same,GI50,SNB-75 CNS,1.65 µM
same,TGI,SNB-75 CNS,9.09 µM
same,GI50,COLO 205 colon,1.72 µM
same,TGI,COLO 205 colon,3.52 µM
same,GI50,SK-OV-3 ovarian,3.22 µM
same,TGI,SK-OV-3 ovarian,13.2 µM
same,GI50,UO-31 renal,3.86 µM
same,TGI,UO-31 renal,17 µM
same,GI50,NCI-H460 lung,3.12 µM
same,TGI,NCI-H460 lung,10.3 µM
same,GI50,OVCAR-8 ovarian,2.71 µM
same,TGI,OVCAR-8 ovarian,11.2 µM
same,GI50,SF-268 CNS,4.35 µM
same,TGI,SF-268 CNS,19 µM
same,GI50,OVCAR-4 ovarian,4.32 µM
same,TGI,OVCAR-4 ovarian,20.6 µM
same,GI50,T-47D breast,2.94 µM
same,TGI,T-47D breast,12 µM
same,GI50,RXF 393 renal,2.4 µM
same,TGI,RXF 393 renal,7.2 µM
same,GI50,UACC-62 melanoma,4.43 µM
same,TGI,UACC-62 melanoma,17 µM
same,GI50,IGROV1 ovarian,3.82 µM
same,TGI,IGROV1 ovarian,15.7 µM
same,GI50,A498 renal,13.9 µM
same,TGI,A498 renal,29.7 µM
same,GI50,MALME-3M melanoma,2.82 µM
same,TGI,MALME-3M melanoma,9.49 µM
same,GI50,SW-620 colon,3.14 µM
same,TGI,SW-620 colon,13.2 µM
same,GI50,SK-MEL-28 melanoma,4.2 µM
same,TGI,SK-MEL-28 melanoma,15 µM
same,GI50,MOLT-4 leukemia,2.19 µM
same,TGI,MOLT-4 leukemia,7.13 µM
same,GI50,RPMI-8226 leukemia,2.3 µM
same,TGI,RPMI-8226 leukemia,6.43 µM
same,GI50,UACC-257 melanoma,4.04 µM
same,TGI,UACC-257 melanoma,15.9 µM
same,GI50,HCT-116 colon,2 µM
same,TGI,HCT-116 colon,8.32 µM
same,GI50,SNB-19 CNS,4.3 µM
same,TGI,SNB-19 CNS,15.6 µM
same,GI50,TK-10 renal,5.9 µM
same,TGI,TK-10 renal,19.2 µM
same,GI50,HOP-62 NSCLC,3.09 µM
same,TGI,HOP-62 NSCLC,12.3 µM
same,GI50,HCC-2998 colon,1.79 µM
same,TGI,HCC-2998 colon,3.41 µM
same,GI50,CAKI-1 renal,3.63 µM
same,TGI,CAKI-1 renal,16 µM
same,GI50,MDA-MB-468 breast,1.66 µM
same,TGI,MDA-MB-468 breast,4.49 µM
same,GI50,786-0 renal,1.75 µM
same,TGI,786-0 renal,4.15 µM
same,GI50,HOP-92 NSCLC,2.36 µM
same,TGI,HOP-92 NSCLC,9.84 µM
same,GI50,BT-549 breast,2.62 µM
same,TGI,BT-549 breast,6.87 µM
same,GI50,MDA-MB-231 breast,2.32 µM
same,TGI,MDA-MB-231 breast,5.78 µM
same,GI50,SR leukemia,2.11 µM
same,TGI,SR leukemia,12.4 µM
same,GI50,KM12 colon,3.41 µM
same,TGI,KM12 colon,12.4 µM
same,GI50,SF-539 CNS,2.15 µM
same,TGI,SF-539 CNS,4.27 µM
same,GI50,U251 CNS,2.92 µM
same,TGI,U251 CNS,10.7 µM
